Source: patent US11160808B2, “Compounds that enhance Atoh1 expression” (Massachusetts Eye & Ear Infirmary, priority 2008, dated 2021)
Like-named read-outs stand apart in the source and are kept apart here.

Experiments:
[1] = LD50 (median lethal dose) determination; format: cell-based
Text: IC50 is a measure of the effectiveness of a compound in inhibiting biological or biochemical function. LD50 is the amount of a compound required to kill half the members of a tested population.

[2] = tested on: Math1 enhancer and minimal promoter Luciferase reporter in HEK cells; test: Math1 Luciferase reporter assay in HEK cells; format: cell-based, human
Text: A human embryonic kidney (HEK) cell line stably expressing a Luciferase gene controlled by an Math1 enhancer and minimal promoter was used in a high-throughput screen (HTS) of 144,000 small molecules to identify compounds that increase Math1 expression (i.e., transcription and/or translation). Such compounds can be used to increase the conversion of stem cells, progenitor cells, and support cells to or towards a hair cell. Screens to identify such compounds are described by Li et al., (U.S. Publication No. 2005/0287127) and Li et al., (U.S. application Ser. No. 11/953,797).
HEK cells stably expressing the Math1 Luciferase reporter were plated onto 384 well plates and cultured overnight in medium containing 10% fetal calf serum (FCS). Activation of the Math1 enhancer was measured by the increase in luminescence on a plate reader following addition of a luciferase detection agent. The assay was optimized for cell number, time of incubation, volume of medium, cell lysis reagent and luciferase reagent. Luminescence levels were compared in cells with the Math1-luciferase construct with and without retinoic acid (1 μM), and/or a luciferase construct with and without the Math1 enhancer and minimal promoter region.
To improve assay sensitivity, and reduce the coefficient of variation (CV), a more sensitive luciferase reagent (BriteLite luciferase reporter assay reagent, Perkin Elmer) was used, and Triton-X-100 was added to the lysis reagent to ensure complete lysis of the cells. Following these changes a CV of 4.2% was recorded. These conditions were used for all high-throughput screens. The luminescence threshold for a compound to be positive was defined as a 2-fold increase above the control (e.g., cells exposed to DMSO).
Cells were seeded on 384 well plates and allowed to attach overnight at 37° C. with 5% CO2 in the absence of growth factors. Math1 activation was measured by the increase in luminescence on a plate reader following addition of a luciferase detection reagent. Luminescence was assessed at 24, 48, and 72 hours. These conditions were used to screen 144,000 compounds contained in the small molecule libraries at Harvard University's Laboratory for Drug Discovery in Neurodegeneration (LDDN).
HTS were performed using HEK-Math1 cells seeded in 384 well plates. One compound was added per well using pin transfer. The final concentration of each compound was […]. Cell were incubated in the presence of a compound for 48 hours at 37° C. with 5% CO2. Cell lysates then were collected and bioluminescence determined. Luminescence values were compared normalized against DMSO.
About 20000 compounds were screened per week in 50 plates of 384 well with the aid of robotic systems (Beckman Biomek FX). Compounds were screened at an average final concentration of 0.7 μM (in 0.04% DMSO) with each plate containing 16 wells of 1 μM retinoic acid, as a positive control, and 16 wells of 0.04% DMSO, as a vehicle control. Percent activation of luminescence in the test compounds was determined for cells treated with the compounds against cells treated with DMSO.
(§1) Ten compounds, randomly selected from the group of 110 compounds identified in Example 2, were further evaluated, as follows. HEK cells were plated on 96 well plates at a density of 100000 cells per well. One day after plating, 0.1, 1, and 5 μM of each positive compound was added per well in a 10% fetal bovine serum (FBS) DMEM solution. Cells were then lysed 48 hours after addition of the compound and Math1 expression was analyzed using a luciferase reporter assay, as described above, and real-time PCR.
The half maximal inhibitory concentration (IC50) and median lethal dose or Lethal Dose, 50% (LD50) were determined for each of the compounds identified in Example 2 using standard laboratory techniques. IC50 is a measure of the effectiveness of a compound in inhibiting biological or biochemical function. LD50 is the amount of a compound required to kill half the members of a tested population.

Math1 mRNA = Math1 mRNA expression by RT-PCR in HEK cells; format: cell-based, human; conditions: among the four randomly selected compounds
Protocol: as §1
RNA was also isolated and Math1 transcripts were amplified using high-throughput RT-PCR.

[3] = Homo sapiens, HEK293; read-out: IC50
[4] = Homo sapiens, HEK293; read-out: Maximum (Fold DMSO)

Row | SMILES | LD50 [1] [µM] | IC50 [2, 3] [µM] | maximal fold induction [2, 4] | IC50 ([2]; Homo sapiens, HEK293) [µM] | maximal fold induction ([2]; Homo sapiens, HEK293, read-out: Maximum (Fold DMSO)) | increase in Math1 mRNA expression (ranking in words) (Math1 mRNA)
1 | O=C(c1cc(-c2ccc(Br)cc2)on1)N1CCOCC1 [CP-0075627, (5-(4-bromophenyl)isoxazol-3-yl)(morpholino)methanone] | >10 | 8 | 2 |  |  | 
2 | CCN(CC)C(=O)c1cc2cc3cc(OC)ccc3nc2s1 [CP-0076627, N,N-diethyl-6-methoxythieno [2,3-b]quinoline-2-carboxamide] | >10 | 5 | 2.2 |  |  | 
3 | O=C(Nc1ccccc1Cl)C(=O)c1c[nH]c2ccccc12 [CP-0078448, N-(2-chlorophenyl)-2-(1H-indol-3-yl)-2-oxoacetamide] | >10 | > 10 | 1.9 |  |  | 
4 | CCN(CC)c1ncnc2c1cnn2-c1cccc(C)c1 [CP-0079810, N,N-diethyl-1-m-tolyl-1H-pyrazolo[3,4-d]pyrimidin-4-amine] | >10 | 3 | 2.3 |  |  | 
5 | Clc1ccc2oc(-c3ccccc3)nc2c1 [CP-0079983, 5-chloro-2-phenylbenzo[d]oxazole] | >10 | 3 | 1.8 |  |  | 
6 | COc1ccc(-c2ccc3c(n2)CCCN3)cc1 [CP-0080276, 6-(4-methoxyphenyl)-1,2,3,4-tetrahydro-1,5-naphthyridine] | >10 | 0.3 | 2 |  |  | 
7 | c1ccc(SCc2nc3ccccc3[nH]2)cc1 [CP-0080773, 2-(phenylthiomethyl)-1H-benzo[d]imidazole] | >10 | > 10 | 2.2 |  |  | 
8 | NC(=O)c1c(NC(=O)c2cc3ccccc3o2)sc2c1CCC2 [CP-0087336, N-(3-carbamoyl-5,6-dihydro-4H-cyclopenta[b]thiophen-2-yl)benzofuran-2-carboxamide] | >10 | 0.08 | 2.2 |  |  | 
9 | COc1ccccc1N1CCN(c2ccc3ccccc3n2)CC1 [CP-0087799, 2-(4-(2-methoxyphenyl)piperazin-1-yl)quinoline] | >10 | 1 | 2.1 |  |  | 
10 | O=C(NCCSc1ccccc1)c1cncc(Br)c1 [CP-0089966, 5-bromo-N-(2-(phenylthio)ethyl) nicotinamide] | >10 | > 10 | 2.2 |  |  | 
11 | Cc1ccc2nc(-c3cc4ccccc4oc3=N)[nH]c2c1 [CP-0091818, 3-(6-methyl-1H-benzo[d]imidazol-2-yl)-2H-chromen-2-imine] | >10 | 0.9 | 2.1 |  |  | 
12 | COc1cc(C)c2c(=O)cc(-c3ccccc3)oc2c1 [CP-0096433, 7-methoxy-5-methyl-2-phenyl-4H-chromen-4-one] | >10 | 3 | 2 |  |  | 
13 | CS(=O)(=O)n1nccc1-c1ccc(-c2ccc(F)cc2F)o1 [CP-0099289, 5-(5-(2,4-difluorophenyl)furan-2-yl)-1-(methylsulfonyl)-1H-pyrazole] | >10 | > 10 | 1.6 |  |  | 
14 | CC(=O)Nc1cc(-c2sc3ccc(Cl)cc3c2C)n[nH]1 [CP-0102404, N-(3-(5-chloro-3-methylbenzo[b]thiophen-2-yl)-1H-pyrazol-5-yl)acetamide] | >10 | > 10 | 1.6 |  |  | 
15 | Cc1cccc(-c2nc3cc(C)ccc3o2)c1 [CP-0103978, 5-methyl-2-m-tolylbenzo[d]oxazole] | >10 | 1 | 2 |  |  | 
16 | Cc1oc(C(C)(C)C)cc1-c1cc(NC(=O)c2ccccc2)[nH]n1 [CP-0104765, N-(3-(5-tert-butyl-2-methylfuran-3-yl)-1H-pyrazol-5-yl)benzamide] | >10 | 0.4 | 2 |  |  | 
17 | Cc1cc(C(=O)Nc2ccccc2)c(C)n1Cc1cccs1 [CP-0104766, 2,5-dimethyl-N-phenyl-1-(thiophen-2-ylmethyl)-1H-pyrrole-3-carboxamide] | >10 | 3 | 3 |  |  | 
18 | COc1ccc(Br)c(-c2nc(-c3cccs3)no2)c1 [CP-0104904, 5-(2-bromo-5-methoxyphenyl)-3-(thiophen-2-yl)-1,2,4-oxadiazole] | >10 | > 10 | 2.2 |  |  | 
19 | COc1ccc(-c2csc(-c3c(C)noc3N)n2)cc1 [CP-0105343, 4-(4-(4-methoxyphenyl)thiazol-2-yl)-3-methylisoxazol-5-amine] | >10 | 3 | 2 |  |  | 
20 | CC(=O)Nc1ccc2nc(NC(=O)c3ccco3)sc2c1 [CP-0105777, N-(6-acetamidobenzo[d]thiazol-2-yl)furan-2-carboxamide] | >10 | 0.3 | 2 |  |  | 
21 | COc1cccc(C(=O)Nc2nc3ccc(F)cc3s2)c1 [CP-0107060, N-(6-fluorobenzo[d]thiazol-2-yl)-3-methoxybenzamide] | >10 | 0.1 | 2.2 |  |  | 
22 | Cc1ccccc1OCc1nc2ccccc2[nH]1 [CP-0109953, 2-(o-tolyloxymethyl)-1H-benzo[d]imidazole] | >10 | 0.1 | 1.8 |  |  | 
23 | CC(C)Oc1ccc(C(=O)Nc2sccc2C#N)cc1 [CP-0110352, N-(3-cyanothiophen-2-yl)-4-isopropoxybenzamide] | >10 | 0.05 | 1.8 |  |  | 
24 | O=C(COc1ccccc1)N1CCc2ccccc21 [CP-0110644, 1-(indolin-1-yl)-2-phenoxyethanone] | >10 | 1 | 1.8 |  |  | 
25 | Cc1ccc(CSc2nc3ncccc3o2)cc1 [CP-0130586, 2-(4-methylbenzylthio) oxazolo[4,5-b]pyridine] | >10 | 0.5 | 2.2 |  |  | 
26 | Fc1ccccc1-c1noc(NCCCN2CCCCC2)n1 [CP-0130665, 3-(2-fluorophenyl)-N-(3-(piperidin-1-yl)propyl)-1,2,4-oxadiazol-5-amine] | >10 | 0.3 | 2 |  |  | 
27 | Brc1ccc(C2C=C(c3cccnc3)Nc3nc4ccccc4n32)cc1 (stereo not drawn) [CP-0131763, 2-(3-pyridyl)-4-(4-bromophenyl)-1,4-dihydrobenzo[4,5]imi-dazo[1,2-a]pyrimidine] | >10 |  |  | 2 | 2.4 | 
28 | Cc1cccc(Nc2nc(N)c(C(=O)C(C)C)s2)c1 [CP-0134381, 1-(4-amino-2-(m-tolylamino)thiazol-5-yl)-2-methylpropan-1-one] | >10 | 2 | 2.2 |  |  | 
29 | COc1ccc(-c2nc3ccccc3n2CCc2ccccc2)cc1 [CP-0193184, 2-(4-methoxyphenyl)-1-phenethyl-1H-benzo[d]imidazole] | >30 | > 10 |  |  |  | highest increase
